For series [1], the system named is ZIKV P 6-740. Briefly: CPE reduction assay, ZIKV Malaysian P 6-740. Format: cell-based. As to conditions: Zika virus.
Series [2] relates to ZIKV MR-766. Put plainly: CPE reduction assay, ZIKV Ugandan MR-766. Conditions: Zika virus. It counts as cell-based.
For series [3], the system named is ZIKV (P 6-740). Put plainly: Re-challenge of surviving BCX4430-treated AG129 mice with ZIKV. As to conditions: BCX4430-treated mice (300 mg/kg/d) that survived initial ZIKV challenge. It counts as in vivo.
Series [4] has as its system ZIKV (P 6-740). It counts as in vivo, AG129 mice. As to conditions: for Mean weight change from days 7 to 13: vehicle −3.1 ± 2.4 g, p<0.001.
The subject of series [5] is ZIKV MR-766. Put plainly: Virus yield reduction. Conditions: Zika virus.
Series [6] relates to ZIKV PRVABC-59. Briefly: Virus yield reduction. As to conditions: Zika virus.
The next series relates to ZIKV Malaysian P 6-740. Put plainly: Virus yield reduction.
The test system of series [7] is ZIKV P 6-740. Put plainly: Virus yield reduction. Conditions: Zika virus.
Series [8] concerns ZIKV PRVABC-59. Put plainly: CPE reduction assay, ZIKV Puerto Rican PRVABC-59. It counts as cell-based. Conditions: Zika virus.
Series [9] deals with ZIKV (P 6-740). It counts as in vivo, AG129 mice.
For a further series, the system named is ZIKV. Briefly: Virus yield reduction concentration-response. Conditions: single test. It counts as cell-based, Zika virus.
[10] abbreviates: Huh-7, read-out: CPE red. assay EC50.
Where [11] appears, read: Vero 76, read-out: CPE red. assay EC50.
Where [12] appears, read: RD, read-out: CPE red. assay EC50.
Setting [13] is: Huh-7, read-out: VYR assay EC90.
The mark [14] stands for this setting: Vero 76, read-out: VYR assay EC90.
The mark [15] stands for this setting: 300 mg/kg/d bid for 7 days beginning 3 dpi.

≈ marks a conversion by molar mass, not a printed value. Like-named read-outs stand apart in the source and are kept apart here.

By EC50 is commonly meant the concentration that produces a half-maximal response. A word on the EC90: it is the concentration needed for an effect of 90%.

Regarding `Nc1ncnc2c([C@@H]3N[C@H](CO)[C@@H](O)[C@H]3O)c[nH]c12` [BCX4430], the EC50 in the series on ZIKV P 6-740 [1] (setting [10]) worked out at 5.5 ± 0.1 µg/mL (≈ 20.7 µM); in the series with ZIKV P 6-740 [1] (setting [11]), 11.5 ± 4.4 µg/mL (≈ 43.4 µM); in the series on ZIKV MR-766 [2] (setting [10]), 5.7 ± 0.9 µg/mL (≈ 21.5 µM); in the series with ZIKV MR-766 [2] (setting [12]), 4.4 ± 1.3 µg/mL (≈ 16.6 µM); in the series on ZIKV MR-766 [2] (setting [11]), 11.7 ± 4.7 µg/mL (≈ 44.1 µM); in the series on ZIKV PRVABC-59 [8] (setting [10]) it was 4.7 ± 0.6 µg/mL (≈ 17.7 µM). The half-maximal effective concentration (EC50) turned out to be 4.7 ± 2.2 µg/mL (≈ 17.7 µM) in the series on ZIKV PRVABC-59 [8] (setting [12]) and 3.8 ± 2.5 µg/mL (≈ 14.3 µM) in the series with ZIKV PRVABC-59 [8] (setting [11]). The “Neutralizing antibody titers in serum just prior to re-challenge” value in the series on ZIKV (P 6-740) [3] is 4-5 log10 PRNT50. Moreover, the entries for the “Mean weight change from days 7 to 13” value in the series on ZIKV (P 6-740) [4] (150 mg/kg/d) and in the series with ZIKV (P 6-740) [4] (300 mg/kg/d) were -0.3 ± 0.8 g and “+0.2 ± 0.5 g”, respectively. Besides, the “Weight between 0 and 19 dpi” value in the series on ZIKV (P 6-740) [4] (300 mg/kg/d, similar to sham infected animals treated with the same dose) is recorded as “did not decline substantially”. Further, in the series on ZIKV (P 6-740) [4] (either dose of BCX4430 (300 or 150 mg/kg/d)), the “Viral RNA level in pooled serum on day 5 (qRT-PCR)” value was “significant reduction in viremia”. The EC90 with ZIKV MR-766 [5] (setting [13]) is 6.4 µg/mL (≈ 24.1 µM); in the series with ZIKV MR-766 [5] (RD, read-out: VYR assay EC90) it was 5.4 ± 1.1 µg/mL (≈ 20.4 µM); with ZIKV MR-766 [5] (setting [14]), 8.7 µg/mL (≈ 32.8 µM); in the series with ZIKV PRVABC-59 [6] (setting [13]), 6.7 ± 1.2 µg/mL (≈ 25.3 µM); with ZIKV PRVABC-59 [6] (RD, read-out: VYR assay EC90), 10 ± 2.2 µg/mL (≈ 37.7 µM); with ZIKV PRVABC-59 [6] (setting [14]), 18.2 ± 2.7 µg/mL (≈ 68.6 µM). The concentration for an effect of 90% (EC90) amounted to 4.9 ± 0.9 µg/mL (≈ 18.5 µM) with ZIKV P 6-740 [7] (setting [13]) and 13.8 ± 3.7 µg/mL (≈ 52 µM) with ZIKV P 6-740 [7] (setting [14]). The selectivity ratio in the series with ZIKV Malaysian P 6-740 (African green monkey) amounted to 7.3; in the series with ZIKV Malaysian P 6-740 (human), 20.5. Moreover, the “Protection from weight loss between 7 and 13 dpi” value in the series on ZIKV (P 6-740) [9] (300 mg/kg/d beginning 1, 3 or 5 dpi, vs vehicle p<0.001) is listed as “Significant protection from weight loss”. Besides, the “Viral RNA levels in serum on 5 dpi” value in the series with ZIKV (P 6-740) [9] (300 mg/kg/d beginning 1 or 3 dpi) is reported as “not significantly decreased”. Moreover, the Median survival with ZIKV (P 6-740) [9] (300 mg/kg/d bid for 7 days beginning 1 dpi) was more than 28 days; in the series on ZIKV (P 6-740) [9] (setting [15]), 19.5 days; in the series with ZIKV (P 6-740) [9] (300 mg/kg/d bid for 7 days beginning 5 dpi), 18 days; in the series on ZIKV (P 6-740) [9] (300 mg/kg/d bid for 7 days beginning 7 dpi) it was 17 days. In addition, in the series on ZIKV (P 6-740) [9] (setting [15]), the Survivors result is “only a single mouse survived”.

For `NC(=O)c1ncn([C@@H]2O[C@H](CO)[C@@H](O)[C@H]2O)n1` [Ribavirin, reference compound], the 50% effective concentration (EC50) in the series on ZIKV P 6-740 [1] (setting [10]) was 7.2 ± 2.8 µg/mL (≈ 29.5 µM); with ZIKV MR-766 [2] (setting [10]) it was 8.9 ± 7.9 µg/mL (≈ 36.4 µM); in the series with ZIKV MR-766 [2] (setting [12]), 9.3 ± 5.2 µg/mL (≈ 38.1 µM); in the series with ZIKV MR-766 [2] (setting [11]) it was 85 ± 77.9 µg/mL (≈ 348 µM); in the series with ZIKV PRVABC-59 [8] (setting [10]) it was 3.8 ± 1.6 µg/mL (≈ 15.6 µM); in the series on ZIKV PRVABC-59 [8] (setting [12]), 10 ± 6 µg/mL (≈ 40.9 µM). Besides, the EC50 with ZIKV PRVABC-59 [8] (setting [11]) was determined as 23 ± 16.8 µg/mL (≈ 94.2 µM). For the same molecule, the “Viral RNA level in pooled serum on day 5 (qRT-PCR)” value with ZIKV (P 6-740) [4] (ribavirin i.p. bid 75 or 50 mg/kg/d) is given as “did not improve viral RNA levels”. In addition, the “Outcome (survival)” value with ZIKV (P 6-740) [4] (ribavirin i.p. bid 75 or 50 mg/kg/d for 8 days) was “did not improve outcomes”. Moreover, the “Protection against weight loss” value with ZIKV (P 6-740) [4] (ribavirin i.p. bid 75 or 50 mg/kg/d, days 7 to 13) is “did not protect against weight loss”. Moreover, the “Activity in virus yield reduction assay” value with ZIKV (Vero76 cells (Figure 1A)) is reported as “not active”; with ZIKV (human cell lines Huh-7 and RD (Figures 1B and C)) it was “confirmed the antiviral activity”. Moreover, the concentration for an effect of 90% (EC90) was determined as 10.4 ± 0.8 µg/mL (≈ 42.6 µM) with ZIKV PRVABC-59 [6] (setting [13]); 46.3 ± 8.6 µg/mL (≈ 190 µM) with ZIKV PRVABC-59 [6] (RD, read-out: VYR assay EC90); 281 ± 108 µg/mL (≈ 1150 µM) in the series on ZIKV PRVABC-59 [6] (setting [14]). Further, the selectivity ratio in the series with ZIKV Malaysian P 6-740 (African green monkey) turned out to be 1.6; in the series on ZIKV Malaysian P 6-740 (human), 24.5.

Source of the values: PMC5215849 (Antiviral research, 2016).
